This is an account of results in ChEMBL document CHEMBL5154901, “Development of Predictive Classification Models for Whole Cell Antimycobacterial Activity of Benzothiazinones” (J Med Chem, 2022).

A word on the half-life: it is the time in which the quantity being followed falls by half. For orientation: CC50 means the concentration that lowers cell viability or growth by half. By MIC is commonly meant the lowest concentration that inhibits growth of the organism.

Each structure is given as a SMILES string. ≈ marks a conversion by molar mass, not a printed value. A value given as a limit tells only on which side of the number the result lay.

Series [1] in a line: Metabolic stability in human liver microsomes at 20 uM assessed as intrinsic clearance measured up to 90 mins by LC-HRMS analysis. Format: ADME, Microsome. The following applies: read-out: CLH.
Series [2] in a line: Metabolic stability in human liver microsomes at 20 uM assessed as half life measured up to 90 mins by LC-HRMS analysis. It is filed as ADME, Microsome. For orientation: Liver microsomes are a subcellular fraction often used to study metabolism.
Series [3] is described as follows: Cytotoxicity against human HeLa cells assessed as reduction in cell viability incubated for 72 hrs by methylene blue staining based colorimetric assay. It is filed as toxicity.
The next series relates to Mycolicibacterium vaccae. Nature of the series: Antimycobacterial activity against Mycobacterium vaccae (JMRC:STI:10670) assessed as reduction in bacterial growth incubated for 42 hrs by serial dilution method. Particulars: Mycolicibacterium vaccae, JMRC:STI:10670, read-out: MIC. Format: functional.

For `CN(C(=O)CN1CCN(c2nc(=O)c3cc(C(F)(F)F)cc([N+](=O)[O-])c3s2)CC1)c1ccccc1`, the microsomal CLint at 20 µM in series [1] worked out at 15.8 µL/min/mg. The half-life at 20 µM in series [2] is 88.9 min. Also, in series [3], the cytotoxic concentration (CC50) at 72 h worked out at 70.3 µM. Moreover, in the series on Mycolicibacterium vaccae, the MIC is 0.0061 µM (≈ 0.0031 µg/mL).
As for `O=c1nc(N2CCN(Cc3ccc(OC(F)(F)F)cc3)CC2)sc2c([N+](=O)[O-])cc(C(F)(F)F)cc12`, the microsomal CLint at 20 µM in series [1] was 32.1 µL/min/mg. In addition, the half-life at 20 µM in series [2] came to 43.6 min.
For `O=c1nc(N2CCN(CC(F)(F)c3ccc(F)c(F)c3)CC2)sc2c([N+](=O)[O-])cc(C(F)(F)F)cc12` the same measures were 30.9 µL/min/mg and 45.3 min.
For the compound `O=c1nc(N2CCN(C(c3ccccc3)C(F)(F)F)CC2)sc2c([N+](=O)[O-])cc(C(F)(F)F)cc12` (centres undefined), the microsomal CLint at 20 µM in series [1] was 22.4 µL/min/mg. Besides, the half-life at 20 µM in series [2] is 88.9 min.
`CN(CC1(CO)CCCC1)c1nc(=O)c2cc(C(F)(F)F)cc([N+](=O)[O-])c2s1`: the 50% cytotoxic concentration (CC50) at 72 h in series [3] is more than 120 µM. The MIC with Mycolicibacterium vaccae was determined as 0.0599 µM (≈ 0.025 µg/mL).
Turning to `COc1cc2c(cc1OC)[C@@H](C[C@@H](O)c1ccccc1)N(c1nc(=O)c3cc(C(F)(F)F)cc([N+](=O)[O-])c3s1)CC2`, the CC50 at 72 h in series [3] was more than 85 µM. Further, the MIC in the series on Mycolicibacterium vaccae was 0.0425 µM (≈ 0.025 µg/mL).
As to `O=c1nc(N2CCn3cc(C(F)(F)F)nc3C2)sc2c([N+](=O)[O-])cc(C(F)(F)F)cc12`, the CC50 at 72 h in series [3] is more than 107 µM. For the same compound, the MIC in the series on Mycolicibacterium vaccae was found to be 0.0838 µM (≈ 0.039 µg/mL).
`O=C(CN1CCN(c2nc(=O)c3cc(C(F)(F)F)cc([N+](=O)[O-])c3s2)CC1)NCCc1ccccc1`: the CC50 at 72 h in series [3] amounted to 87.8 µM. In addition, the MIC in the series on Mycolicibacterium vaccae is 0.479 µM (≈ 0.25 µg/mL).
With `N#Cc1cccc(CN2CCN(c3nc(=O)c4cc(C(F)(F)F)cc([N+](=O)[O-])c4s3)CC2)c1`, the microsomal CLint at 20 µM in series [1] is 23.2 µL/min/mg. Moreover, the half-life at 20 µM in series [2] amounted to 60.3 min.
For the compound `Cc1ccc([C@@]2(O)CCN(c3nc(=O)c4cc(C(F)(F)F)cc([N+](=O)[O-])c4s3)C2)cc1`, the CC50 at 72 h in series [3] is more than 111 µM. The MIC in the series on Mycolicibacterium vaccae amounted to 0.0554 µM (≈ 0.025 µg/mL).
With `O=c1nc(N2Cc3ccccc3[C@H](CO)C2)sc2c([N+](=O)[O-])cc(C(F)(F)F)cc12`, the cytotoxic concentration (CC50) at 72 h in series [3] amounted to 86.4 µM. In addition, the minimal inhibitory concentration (MIC) with Mycolicibacterium vaccae turned out to be 0.0286 µM (≈ 0.0125 µg/mL).
As for `COc1ccc2c(c1)CN(c1nc(=O)c3cc(C(F)(F)F)cc([N+](=O)[O-])c3s1)C2`, the CC50 at 72 h in series [3] is more than 118 µM. Moreover, the MIC in the series on Mycolicibacterium vaccae turned out to be 0.0591 µM (≈ 0.025 µg/mL).
`O=c1nc(N2CCN(CC(F)(F)c3ccccc3)CC2)sc2c([N+](=O)[O-])cc(C(F)(F)F)cc12`: in series [3], the cytotoxic concentration (CC50) at 72 h is more than 100 µM. Moreover, the MIC in the series with Mycolicibacterium vaccae was found to be 0.016 µM (≈ 0.00801 µg/mL).
Turning to `O=C(CN1CCN(c2nc(=O)c3cc(C(F)(F)F)cc([N+](=O)[O-])c3s2)CC1)NCc1ccccc1`, in series [3], the CC50 at 72 h turned out to be 57.1 µM. In addition, the minimum inhibitory concentration (MIC) with Mycolicibacterium vaccae was 0.0985 µM (≈ 0.05 µg/mL).
For the compound `O=C(CN1CCN(c2nc(=O)c3cc(C(F)(F)F)cc([N+](=O)[O-])c3s2)CC1)Nc1ccccc1`, in series [3], the CC50 at 72 h was more than 101 µM. Besides, the MIC in the series on Mycolicibacterium vaccae is 0.0253 µM (≈ 0.0125 µg/mL).
Take `O=c1nc(N2CCN(CC(F)(F)c3ccc(OC(F)(F)F)cc3)CC2)sc2c([N+](=O)[O-])cc(C(F)(F)F)cc12`: the CC50 at 72 h in series [3] was more than 86 µM. In the series on Mycolicibacterium vaccae, the minimal inhibitory concentration (MIC) was found to be 0.0027 µM (≈ 0.00158 µg/mL).
With `O=c1nc(N2CCN(CC(F)(F)F)CC2)sc2c([N+](=O)[O-])cc(C(F)(F)F)cc12`, in series [1], the microsomal CLint at 20 µM is 13.5 µL/min/mg. Besides, the half-life at 20 µM in series [2] was determined as 103 min. Moreover, the CC50 at 72 h in series [3] was more than 113 µM. Moreover, the minimal inhibitory concentration (MIC) in the series on Mycolicibacterium vaccae amounted to 0.007 µM (≈ 0.0031 µg/mL).
For `O=c1nc(N2CCn3cc(-c4ccc(F)cc4)nc3C2)sc2c([N+](=O)[O-])cc(C(F)(F)F)cc12` the same measures were 25.7 µL/min/mg, 54.6 min, more than 102 µM and 0.0049 µM (≈ 0.00241 µg/mL).
With `N#Cc1ccccc1N1CCN(c2nc(=O)c3cc(C(F)(F)F)cc([N+](=O)[O-])c3s2)CC1`, the microsomal CLint at 20 µM in series [1] came out at 14.1 µL/min/mg. Also, the half-life at 20 µM in series [2] turned out to be 99 min. The CC50 at 72 h in series [3] was more than 108 µM. The minimum inhibitory concentration (MIC) in the series with Mycolicibacterium vaccae was 0.0087 µM (≈ 0.00401 µg/mL).
For the compound `CN1CCN(C(=O)C(F)(F)C(F)(F)C(F)(F)C(=O)N2CCN(c3nc(=O)c4cc(C(F)(F)F)cc([N+](=O)[O-])c4s3)CC2)CC1`, in series [3], the CC50 at 72 h was more than 75.2 µM. The minimum inhibitory concentration (MIC) in the series on Mycolicibacterium vaccae worked out at 0.0376 µM (≈ 0.025 µg/mL).
Consider `N#Cc1cccc(N2CCN(c3nc(=O)c4cc(C(F)(F)F)cc([N+](=O)[O-])c4s3)CC2)c1`, for which, in series [3], the half-maximal cytotoxic concentration (CC50) at 72 h is more than 108 µM. For the same compound, the MIC with Mycolicibacterium vaccae stood at 0.0347 µM (≈ 0.016 µg/mL).
For `CN(CC(F)(F)CO)c1nc(=O)c2cc(C(F)(F)F)cc([N+](=O)[O-])c2s1`, the 50% cytotoxic concentration (CC50) at 72 h in series [3] turned out to be 109 µM. Further, the MIC in the series with Mycolicibacterium vaccae amounted to 0.0626 µM (≈ 0.025 µg/mL).
As for `O=C(CN1CCN(c2nc(=O)c3cc(C(F)(F)F)cc([N+](=O)[O-])c3s2)CC1)Nc1ccccn1`, the half-maximal cytotoxic concentration (CC50) at 72 h in series [3] is 44.5 µM. Also, the minimal inhibitory concentration (MIC) with Mycolicibacterium vaccae worked out at 0.0506 µM (≈ 0.025 µg/mL).
The matching figures for `O=c1nc(N2CCN(S(=O)(=O)c3ccc(OC(F)(F)F)cc3)CC2)sc2c([N+](=O)[O-])cc(C(F)(F)F)cc12`: 31.5 µM and 0.0274 µM (≈ 0.016 µg/mL).
Turning to `CN(CCCO)c1nc(=O)c2cc(C(F)(F)F)cc([N+](=O)[O-])c2s1`, the CC50 at 72 h in series [3] came out at 103 µM. Also, in the series with Mycolicibacterium vaccae, the MIC amounted to 0.0716 µM (≈ 0.026 µg/mL).
The matching figures for `CCCCN(Cc1ccccc1)c1nc(=O)c2cc(C(F)(F)F)cc([N+](=O)[O-])c2s1`: more than 114 µM and 0.0286 µM (≈ 0.0125 µg/mL).
The matching figures for `O=C(CN1CCN(c2nc(=O)c3cc(C(F)(F)F)cc([N+](=O)[O-])c3s2)CC1)N1CCCC1`: more than 106 µM and 0.0658 µM (≈ 0.031 µg/mL).
With `O=c1nc(N2CCC(OC3CCN(CC(F)(F)F)CC3)CC2)sc2c([N+](=O)[O-])cc(C(F)(F)F)cc12`, the microsomal CLint at 20 µM in series [1] amounted to 34.5 µL/min/mg. Moreover, the half-life at 20 µM in series [2] turned out to be 40.5 min. In addition, the CC50 at 72 h in series [3] was more than 93 µM. Further, the minimum inhibitory concentration (MIC) in the series with Mycolicibacterium vaccae was 0.0115 µM (≈ 0.00622 µg/mL).
Regarding `O=c1nc(N2CC[C@H](c3ccccc3)[C@@H](O)C2)sc2c([N+](=O)[O-])cc(C(F)(F)F)cc12`, the microsomal CLint at 20 µM in series [1] was determined as 26.7 µL/min/mg. The half-life at 20 µM in series [2] was found to be 52.5 min. The CC50 at 72 h in series [3] was 73.1 µM. Moreover, the minimal inhibitory concentration (MIC) with Mycolicibacterium vaccae stood at 0.0069 µM (≈ 0.00311 µg/mL).
`CCCCCCN(C)c1nc(=O)c2cc(C(F)(F)F)cc([N+](=O)[O-])c2s1`: the CC50 at 72 h in series [3] is 75.5 µM. In addition, the minimal inhibitory concentration (MIC) in the series on Mycolicibacterium vaccae was determined as 0.0321 µM (≈ 0.0125 µg/mL).
For the compound `O=C(O)Cc1ccccc1Nc1c(Cl)cccc1Cl` [DICLOFENAC], in series [1], the microsomal CLint at 20 µM was 222 µL/min/mg. In addition, in series [2], the half-life at 20 µM was 6.3 min.
